The target of one test is human DGKα (Homo sapiens (Human), UniProt P23743). In words: DGKα LIPGLO assay (extruded liposome substrate, ADP-Glo luminescence). To be noted: liposome assay; read-out: DGK alpha LIPGLO IC50. In kind it is biochemical.
Another test concerns the target human DGKζ (Homo sapiens (Human), UniProt Q13574). In words: DGKζ LIPGLO assay (extruded liposome substrate, ADP-Glo luminescence). Format: biochemical. To be noted: liposome assay; read-out: DGK zeta LIPGLO IC50. On the technique in general: ADP-Glo first removes unused ATP, then detects ADP through luciferase.
In test [1] the test system is human venous whole blood (IFN-γ). Kind of test: Human whole blood IFN-γ assay. In kind it is cell-based. To be noted: whole blood, normalized to 3 μM reference compound as 100% activation, read-out: IFN-γ Whole Blood Normalized EC50. The method, then: Human venous whole blood (22.5 μL per well), obtained from healthy donors, was pre-treated with compounds for one hour at 37° C. in a humidified 95% air/5% CO2 incubator. The blood was stimulated with 2.5 μL anti-human CD3 and anti-CD28 mAb at a final concentration of 1 μg/mL each for 24 hours at 37° C. IFN-γ in the supernatants was measured using AlphLISA kit (Cat #AL217).

Where two headings read alike, the source gives them in different places.

Sequence of human DGKζ (Q13574 other isoform, or with tags, fused parts or gaps): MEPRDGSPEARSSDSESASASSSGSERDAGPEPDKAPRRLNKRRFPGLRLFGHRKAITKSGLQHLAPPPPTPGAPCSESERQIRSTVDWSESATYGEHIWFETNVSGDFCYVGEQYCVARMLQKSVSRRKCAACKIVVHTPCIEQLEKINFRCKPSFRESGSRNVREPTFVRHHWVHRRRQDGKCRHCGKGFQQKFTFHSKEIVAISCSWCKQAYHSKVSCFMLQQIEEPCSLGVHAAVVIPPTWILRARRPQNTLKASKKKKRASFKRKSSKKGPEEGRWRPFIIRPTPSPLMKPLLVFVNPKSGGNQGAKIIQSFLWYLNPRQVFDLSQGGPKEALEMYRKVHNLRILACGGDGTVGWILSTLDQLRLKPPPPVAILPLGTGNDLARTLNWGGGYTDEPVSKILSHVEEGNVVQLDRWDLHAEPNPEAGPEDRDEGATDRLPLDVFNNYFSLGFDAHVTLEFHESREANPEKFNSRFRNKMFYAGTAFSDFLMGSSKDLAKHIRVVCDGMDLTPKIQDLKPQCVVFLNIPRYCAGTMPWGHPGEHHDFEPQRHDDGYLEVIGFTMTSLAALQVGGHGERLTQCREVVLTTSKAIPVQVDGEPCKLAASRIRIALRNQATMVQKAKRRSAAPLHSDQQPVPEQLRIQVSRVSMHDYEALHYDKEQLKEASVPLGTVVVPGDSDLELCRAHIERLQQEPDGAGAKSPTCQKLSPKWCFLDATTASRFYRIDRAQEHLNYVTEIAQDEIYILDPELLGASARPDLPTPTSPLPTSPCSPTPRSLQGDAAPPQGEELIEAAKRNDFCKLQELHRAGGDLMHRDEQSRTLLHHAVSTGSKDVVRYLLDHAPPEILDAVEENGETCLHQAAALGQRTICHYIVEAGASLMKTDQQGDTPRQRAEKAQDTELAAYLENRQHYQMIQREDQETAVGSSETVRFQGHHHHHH
Sequence of human DGKα (P23743 whole entry, looked up): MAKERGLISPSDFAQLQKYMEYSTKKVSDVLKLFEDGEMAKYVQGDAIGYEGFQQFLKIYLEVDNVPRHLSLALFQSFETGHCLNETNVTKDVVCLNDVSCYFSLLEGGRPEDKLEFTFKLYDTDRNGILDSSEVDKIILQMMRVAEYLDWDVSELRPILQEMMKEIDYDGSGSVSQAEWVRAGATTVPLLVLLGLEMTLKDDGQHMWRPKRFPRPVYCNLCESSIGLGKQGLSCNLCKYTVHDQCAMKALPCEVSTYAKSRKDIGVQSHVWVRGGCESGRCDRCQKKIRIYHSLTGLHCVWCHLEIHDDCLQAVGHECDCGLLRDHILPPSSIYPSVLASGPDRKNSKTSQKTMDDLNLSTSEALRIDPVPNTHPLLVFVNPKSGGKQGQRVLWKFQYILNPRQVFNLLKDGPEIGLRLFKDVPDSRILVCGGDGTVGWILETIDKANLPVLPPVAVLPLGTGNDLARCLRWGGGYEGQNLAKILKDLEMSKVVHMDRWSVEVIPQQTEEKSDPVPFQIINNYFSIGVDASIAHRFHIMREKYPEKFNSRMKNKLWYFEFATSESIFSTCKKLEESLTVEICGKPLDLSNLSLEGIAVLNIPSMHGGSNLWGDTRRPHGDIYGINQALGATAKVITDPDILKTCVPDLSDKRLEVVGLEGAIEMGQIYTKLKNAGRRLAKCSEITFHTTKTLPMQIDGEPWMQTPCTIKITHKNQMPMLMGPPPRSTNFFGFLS

By IC50 is commonly meant the concentration at which inhibition is half-maximal. A word on the EC50: it is the concentration needed to bring the measured effect to its halfway point. As to `CC(c1ccc(C2CC2)cc1)N1C[C@H](C)N(c2nc(=O)n(C)c3ccc(C#N)nc23)C[C@H]1C` (single isomer, unassigned) [Example 3], the IC50 at human DGKα is 190 nM; on human DGKζ, 110 nM. The EC50 in test [1] worked out at 31 nM.

For `CC(c1ccc(C2CC2)cc1)N1C[C@H](C)N(c2nc(=O)n(C)c3ccc(C#N)nc23)C[C@H]1C` (single isomer, unassigned) [Example 4], the IC50 came to 1330 nM on human DGKα and 760 nM on human DGKζ. In addition, in test [1], the EC50 was 970 nM.

On to `CC[C@H]1CN(C(C)c2ccc3c(c2)OC(F)(F)O3)[C@H](CC)CN1c1nc(=O)n(C)c2ccc(C#N)nc12` (single isomer, unassigned) [Example 15], for which the IC50 at human DGKα was 490 nM; at human DGKζ, 1220 nM. The concentration for a half-maximal effect (EC50) in test [1] was 1740 nM.

Turning to `CC[C@H]1CN(C(C)c2ccc(OC)cc2)[C@H](CC)CN1c1nc(=O)n(C)c2ccc(C#N)nc12` (single isomer, unassigned) [Example 17], the results for the IC50 on human DGKα and on human DGKζ were 320 nM and 2140 nM, respectively. The EC50 in test [1] (Homo sapiens) stood at 2890 nM.

`CC[C@H]1CN(C(C)c2ccc(OC(C)C)cc2)[C@H](CC)CN1c1nc(=O)n(C)c2ccc(C#N)nc12` (single isomer, unassigned) [Example 19]: the IC50 was 4050 nM on human DGKα and 3100 nM at human DGKζ. The EC50 in test [1] (Homo sapiens) was found to be 2060 nM.

For `CC[C@H]1CN(C(C)c2ccc(C(F)(F)F)cc2)[C@H](CC)CN1c1nc(=O)n(C)c2ccc(C#N)nc12` (single isomer, unassigned) [Example 21], the IC50 is 386 nM at human DGKα and 1010 nM at human DGKζ. Moreover, the EC50 in test [1] is 2850 nM.

`CC[C@H]1CN(C(C)c2ccc(OCC3CC3)cc2)[C@H](CC)CN1c1nc(=O)n(C)c2ccc(C#N)nc12` (single isomer, unassigned) [Example 24]: the IC50 was found to be 680 nM on human DGKα and 630 nM at human DGKζ. For the same compound, in test [1], the EC50 came out at 450 nM.

In the case of `CC[C@H]1CN(C(C)c2ccc(C3CC3)cc2)[C@H](CC)CN1c1nc(=O)n(C)c2ccc(C#N)nc12` (single isomer, unassigned) [Example 28], the IC50 at human DGKα came to 1570 nM; at human DGKζ it was 2650 nM. Also, the EC50 in test [1] was 2040 nM.

`CC[C@H]1CN(C(C)c2ccc(OC(F)(F)F)c(F)c2)[C@H](CC)CN1c1nc(=O)n(C)c2ccc(C#N)nc12` (single isomer, unassigned) [Example 31]: the half-inhibitory concentration (IC50) was 1700 nM at human DGKα and 960 nM at human DGKζ. Also, the concentration giving a half-maximal response (EC50) in test [1] worked out at 270 nM.

Consider `CC[C@H]1CN(C(C)c2ccc(OCC3CC3)cc2F)[C@H](CC)CN1c1nc(=O)n(C)c2ccc(C#N)nc12` (single isomer, unassigned) [Example 32], for which the IC50 at human DGKα stood at 500 nM; on human DGKζ it was 31 nM. In test [1], the EC50 is 19 nM.

As to `CC[C@H]1CN(C(C)c2ccc(OCC3CC3)cc2F)[C@H](CC)CN1c1nc(=O)n(C)c2ccc(C#N)nc12` (single isomer, unassigned) [Example 33], the values for the 50% inhibitory concentration (IC50) at human DGKα and at human DGKζ were 2560 nM and 5930 nM, respectively. Besides, the EC50 in test [1] stood at 3830 nM.

Regarding `CC[C@H]1CN(C(c2ccc(F)cc2)c2ccon2)[C@H](CC)CN1c1nc(=O)n(C)c2ccc(C#N)nc12` (single isomer, unassigned) [Example 34], the figures for the IC50 on human DGKα and on human DGKζ were 620 nM and 310 nM, respectively. Besides, the EC50 in test [1] turned out to be 420 nM.

`CC[C@H]1CN(C(C)c2ccc(C3CC3)cc2F)[C@H](CC)CN1c1nc(=O)n(C)c2ccc(C#N)nc12` (single isomer, unassigned) [Example 41]: the IC50 at human DGKα amounted to 2270 nM; at human DGKζ, 1080 nM. For the same compound, in test [1], the concentration giving a half-maximal response (EC50) is 470 nM.

Take `CC[C@H]1CN(C(C)c2ccc(C(F)(F)F)nc2)[C@H](CC)CN1c1nc(=O)n(C)c2ccc(C#N)nc12` (single isomer, unassigned) [Example 44]: the IC50 on human DGKα amounted to 85 nM; on human DGKζ it was 21 nM. Also, in test [1], the EC50 is 260 nM.

Turning to `CC[C@H]1CN(C(C)c2ccc(C(F)(F)F)nc2)[C@H](CC)CN1c1nc(=O)n(C)c2ccc(C#N)nc12` (single isomer, unassigned) [Example 45], the IC50 amounted to 310 nM at human DGKα and 510 nM on human DGKζ. The EC50 in test [1] was found to be 1040 nM.

As to `CC[C@@H]1CN(c2nc(=O)n(C)c3ccc(C#N)nc23)[C@@H](C)CN1C(C)c1ccc(OC(F)(F)F)cc1` (single isomer, unassigned) [Example 49], the IC50 amounted to 390 nM at human DGKα and 850 nM on human DGKζ. The EC50 in test [1] was found to be 2340 nM.

For `CC[C@@H]1CN(c2nc(=O)n(C)c3ccc(C#N)nc23)[C@@H](C)CN1C(C)c1ccc(OC(C)C)cc1` (single isomer, unassigned) [Example 52], the IC50 is 230 nM on human DGKα and 52 nM at human DGKζ. The 50% effective concentration (EC50) in test [1] turned out to be 53 nM.

`CC[C@@H]1CN(c2nc(=O)n(C)c3ccc(C#N)nc23)[C@@H](C)CN1C(C)c1ccc(OCC2CC2)cc1` (single isomer, unassigned) [Example 67]: the IC50 at human DGKα came to 210 nM; at human DGKζ, 33 nM.

Consider `CC[C@@H]1CN(c2nc(=O)n(C)c3ccc(C#N)nc23)[C@@H](C)CN1C(C)c1ccc2c(c1)OC(F)(F)O2` (single isomer, unassigned) [Example 72], for which the IC50 at human DGKα was 1500 nM. Further, the EC50 in test [1] came to 790 nM.

For the compound `CCC(c1ccc(OC(F)F)cc1)N1C[C@H](C)N(c2nc(=O)n(C)c3ccc(C#N)nc23)C[C@H]1CC` (single isomer, unassigned) [Example 77], the IC50 at human DGKα was found to be 36 nM; at human DGKζ it was 14 nM.

As for `CCC(c1ccc2c(c1)OC(F)(F)O2)N1C[C@H](C)N(c2nc(=O)n(C)c3ccc(C#N)nc23)C[C@H]1CC` (single isomer, unassigned) [Example 80], the IC50 came out at 2160 nM at human DGKα and 1180 nM at human DGKζ.

For `CC(c1ccc(F)cc1)N1C[C@H](C)N(c2nc(=O)n(C)c3ccc(C#N)nc23)C[C@H]1C` (single isomer, unassigned) [Example 128], the IC50 was found to be 26 nM on human DGKα and 110 nM at human DGKζ.

In the case of `CCC(c1ccc(OC(F)(F)F)cc1)N1C[C@H](C)N(c2nc(=O)n(C)c3ccc(C#N)nc23)C[C@H]1C` (single isomer, unassigned) [Example 155], the IC50 at human DGKα worked out at 250 nM; on human DGKζ, 750 nM.

On to `CC(c1ccc(OC(F)F)cc1)N1C[C@H](C)N(c2nc(=O)n(C)c3ccc(C#N)nc23)C[C@H]1C` (single isomer, unassigned) [Example 156], for which the IC50 amounted to 10 nM on human DGKα and 120 nM at human DGKζ.

Regarding `CCC(c1ccc(OC(F)(F)F)cc1F)N1C[C@H](CC)N(c2nc(=O)n(C)c3ccc(C#N)nc23)C[C@H]1CC` (stereo partly shown) [Example 11], the IC50 came to 5 nM at human DGKα and 60 nM on human DGKζ.

Turning to `CC[C@H]1CN(C(C)c2ccc(C(F)(F)F)cc2F)[C@H](C)CN1c1nc(=O)n(C)c2ccc(C#N)nc12` (stereo partly drawn) [Example 118, 4-((2S,5R)-2-ethyl-4-(1-(2-fluoro-4-(trifluoromethyl)phenyl)ethyl)-5-methylpiperazin-1-yl)-1-methyl-2-oxo-1,2-dihydropyrido[3,2-d]pyrimidine-6-carbonitrile], the IC50 was found to be 95 nM at human DGKα and 16 nM on human DGKζ.

Regarding `CC[C@H]1CN(C(C)c2ccc(C(F)(F)F)cc2F)[C@H](C)CN1c1nc(=O)n(C)c2ccc(C#N)nc12` (stereo partly drawn) [Example 119, 4-((2S,5R)-2-ethyl-4-(1-(2-fluoro-4-(trifluoromethyl)phenyl)ethyl)-5-methylpiperazin-1-yl)-1-methyl-2-oxo-1,2-dihydropyrido[3,2-d]pyrimidine-6-carbonitrile], the IC50 at human DGKα stood at 650 nM; on human DGKζ, 730 nM.

Take `CC[C@H]1CN(C(c2ccc(F)cc2)c2cccc(C(F)(F)F)n2)[C@H](C)CN1c1nc(=O)n(C)c2ccc(C#N)nc12` (stereo partly drawn) [Example 120, 4-((2S,5R)-2-ethyl-4-((4-fluorophenyl)(6-(trifluoromethyl)pyridin-2-yl)methyl)-5-methylpiperazin-1-yl)-1-methyl-2-oxo-1,2-dihydropyrido[3,2-d]pyrimidine-6-carbonitrile]: the results for the IC50 at human DGKα and on human DGKζ were 1710 nM and 740 nM, respectively.

`CC[C@H]1CN(C(c2ccc(F)cc2)c2cccc(C(F)(F)F)n2)[C@H](C)CN1c1nc(=O)n(C)c2ccc(C#N)nc12` (stereo partly drawn) [Example 121, 4-((2S,5R)-2-ethyl-4-((4-fluorophenyl)(6-(trifluoromethyl)pyridin-2-yl)methyl)-5-methylpiperazin-1-yl)-1-methyl-2-oxo-1,2-dihydropyrido[3,2-d]pyrimidine-6-carbonitrile]: the IC50 on human DGKα amounted to 1940 nM; at human DGKζ, 1650 nM.

On to `CC[C@H]1CN(C(C)c2ccc(OC(F)(F)F)cc2)[C@H](C)CN1c1nc(=O)n(C)c2ccc(C#N)nc12` (stereo partly drawn) [Example 122, 4-((2S,5R)-2-ethyl-5-methyl-4-(1-(4-(trifluoromethoxy)phenyl)ethyl)piperazin-1-yl)-1-methyl-2-oxo-1,2-dihydropyrido[3,2-d]pyrimidine-6-carbonitrile], for which the IC50 on human DGKα is 32 nM; at human DGKζ, 1960 nM.

As for `CC[C@H]1CN(C(C)c2ccc(C(F)(F)F)cc2N2CCOCC2)[C@H](CC)CN1c1nc(=O)n(C)c2ccc(C#N)nc12` (stereo partly drawn) [Example 195, 4-((2S,5R)-2,5-diethyl-4-(1-(2-morpholino-4-(trifluoromethyl)phenyl)ethyl)piperazin-1-yl)-1-methyl-2-oxo-1,2-dihydropyrido[3,2-d]pyrimidine-6-carbonitrile], the IC50 is 125000 nM at human DGKα and 5070 nM at human DGKζ.
